Assay results from patent publication US20240116985A1, “STAPLED PEPTIDES AND METHODS THEREOF” (priority 2020, published 2024).

Target: T1, full-length beta-Catenin (Uniprot ID P35222) (Homo sapiens, UniProt P35222)
T1 construct: 10 nM full-length beta-Catenin (Uniprot ID P35222)
T1 sequence (P35222 1-781): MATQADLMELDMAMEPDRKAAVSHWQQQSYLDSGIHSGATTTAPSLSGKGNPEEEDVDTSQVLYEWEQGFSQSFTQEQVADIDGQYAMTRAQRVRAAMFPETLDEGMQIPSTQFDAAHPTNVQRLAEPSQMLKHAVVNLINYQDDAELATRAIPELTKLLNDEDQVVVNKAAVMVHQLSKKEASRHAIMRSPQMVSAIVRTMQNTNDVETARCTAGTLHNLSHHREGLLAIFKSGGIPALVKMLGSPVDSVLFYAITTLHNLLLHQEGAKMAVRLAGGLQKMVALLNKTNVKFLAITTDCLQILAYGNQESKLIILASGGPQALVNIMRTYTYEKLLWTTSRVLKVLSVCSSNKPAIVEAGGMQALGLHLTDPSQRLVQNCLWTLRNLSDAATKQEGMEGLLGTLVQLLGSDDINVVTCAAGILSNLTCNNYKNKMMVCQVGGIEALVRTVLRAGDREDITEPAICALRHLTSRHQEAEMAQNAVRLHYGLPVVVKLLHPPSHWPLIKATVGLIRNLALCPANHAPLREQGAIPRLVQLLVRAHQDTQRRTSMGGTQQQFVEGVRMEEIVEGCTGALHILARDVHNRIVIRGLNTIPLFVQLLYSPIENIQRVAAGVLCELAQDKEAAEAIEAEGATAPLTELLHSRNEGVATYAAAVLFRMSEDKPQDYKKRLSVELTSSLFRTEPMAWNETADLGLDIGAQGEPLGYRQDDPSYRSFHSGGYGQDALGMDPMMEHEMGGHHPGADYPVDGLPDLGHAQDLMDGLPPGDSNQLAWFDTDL
Experiment: Fluorescence polarization IC50 (beta-catenin / 5FAM-TCF4 10-53 competition)
Format: binding
Settings: fluorescence polarization; read-out: beta-Catenin FP IC50

| Structure (SMILES) | IC50 |
| --- | --- |
| CC(=O)N[C@]12CCN(C1)C(=O)OCC=CCCCC1(CCCC=CCCCOC(=O)N3CC[C@@](C(=O)N[C@@H](Cc4ccccc4C(F)(F)F)C(=O)N[C@@H](Cc4csc5ccccc45)C(=O)N[C@@H](CCC(N)=O)C(N)=O)(C3)NC(=O)[C@H](CC(C)C)NC(=O)[C@H](Cc3ccccc3)NC(=O)[C@H](C)NC(=O)[C@H](C)NC(=O)[C@H](Cc3cccc(C(=O)O)c3)NC(=O)[C@H](CC(=O)O)NC1=O)NC(=O)[C@H](CC(C)(C)C)NC(=O)[C@H](CC(=O)O)NC(=O)[C@H](C)NC2=O (stereo partly drawn) [I-2568, Ac-PyrR-Ala-Asp-Npg-B5-Asp-3COOHF-Ala-Ala-Phe-Leu-PyrS2-2F3MeF-BztA-Gln-NH2] | 4770 nM |
| CC(=O)N[C@]12CCN(C1)C(=O)OCC=CCCCC1(CCCC=CCCCOC(=O)N3CC[C@@](C(=O)N[C@@H](Cc4ccccc4C(F)(F)F)C(=O)N[C@@H](Cc4csc5ccccc45)C(=O)N[C@@H](CCC(N)=O)C(N)=O)(C3)NC(=O)[C@H](CC(C)C)NC(=O)[C@H](Cc3ccccc3)NC(=O)[C@H](C)NC(=O)[C@H](C)NC(=O)[C@H](Cc3cccc(C(=O)O)c3)NC(=O)[C@H](CC(=O)O)NC1=O)NC(=O)[C@H](CC(C)(C)C)NC(=O)[C@H](CC(=O)O)NC(=O)[C@H](CCC(=O)O)NC2=O (stereo partly drawn) [I-2569, Ac-PyrR-Glu-Asp-Npg-B5-Asp-3COOHF-Ala-Ala-Phe-Leu-PyrS2-2F3MeF-BztA-Gln-NH2] | 1950 nM |
| CC(=O)N1CCC[C@H]1C(=O)N[C@]1(C)CCCC=CCCCC2(CCCC=CCCCOC(=O)N3CC[C@@](C(=O)N[C@@H](Cc4ccccc4C(F)(F)F)C(=O)N[C@@H](Cc4csc5ccccc45)C(=O)N[C@@H](CCC(N)=O)C(N)=O)(C3)NC(=O)[C@H](CC(C)C)NC(=O)[C@H](Cc3ccccc3)NC(=O)[C@H](C)NC(=O)[C@H](C)NC(=O)[C@H](Cc3cccc(C(=O)O)c3)NC(=O)[C@H](CC(=O)O)NC2=O)NC(=O)[C@H](CC(C)(C)C)NC(=O)[C@H](CC(=O)O)NC(=O)[C@H](CCC(=O)O)NC1=O (stereo partly drawn) [I-2575, Ac-Pro-R5-Glu-Asp-Npg-B5-Asp-3COOHF-Ala-Ala-Phe-Leu-PyrS2-2F3MeF-BztA-Gln-NH2] | 8160 nM |
| CC(=O)N1CCC[C@]12CC=CCCCC1(CCCC=CCCOC(=O)N3CCC(C(=O)N[C@@H](Cc4ccccc4C(F)(F)F)C(=O)N[C@@H](Cc4csc5ccccc45)C(=O)N[C@@H](C)C(N)=O)(CC3)NC(=O)[C@H](CC(C)C)NC(=O)[C@H](Cc3ccccc3)NC(=O)[C@H](C)NC(=O)[C@H](CCC(N)=O)NC(=O)[C@H](Cc3cccc(C(=O)O)c3)NC(=O)[C@H](CC(=O)O)NC1=O)NC(=O)[C@H](CC(C)(C)C)NC(=O)[C@H](CC(=O)O)NC2=O (stereo partly drawn) [I-2584, Ac-PL3-Asp-Npg-B5-Asp-3COOHF-Gln-Ala-Phe-Leu-SPip1-2F3MeF-BztA-Ala-NH2] | 1840 nM |
| CC(=O)N1CCC[C@]12CC=CCCCC1(CCCC=CCCCOC(=O)N3CCC(C(=O)N[C@@H](Cc4ccccc4C(F)(F)F)C(=O)N[C@@H](Cc4csc5ccccc45)C(=O)N[C@@H](C)C(N)=O)(CC3)NC(=O)[C@H](CC(C)C)NC(=O)[C@H](Cc3ccccc3)NC(=O)[C@H](C)NC(=O)[C@H](CCC(N)=O)NC(=O)[C@H](Cc3cccc(C(=O)O)c3)NC(=O)[C@H](CC(=O)O)NC1=O)NC(=O)[C@H](CC(C)(C)C)NC(=O)[C@H](CC(=O)O)NC2=O (stereo partly drawn) [I-2585, Ac-PL3-Asp-Npg-B5-Asp-3COOHF-Gln-Ala-Phe-Leu-SPip2-2F3MeF-BztA-Ala-NH2] | 452 nM |
| CC(=O)N1CCC[C@]12CC=CCCCC1(CCCC=CCCCOC(=O)N3CCC(C(=O)N[C@@H](Cc4ccccc4C(F)(F)F)C(=O)N[C@@H](Cc4csc5ccccc45)C(=O)N[C@@H](C)C(N)=O)(CC3)NC(=O)[C@H](CC(C)C)NC(=O)[C@H](Cc3ccccc3)NC(=O)[C@H](C)NC(=O)[C@H](CCC(N)=O)NC(=O)[C@H](Cc3cccc(C(=O)O)c3)NC(=O)[C@H](CC(=O)O)NC1=O)NC(=O)[C@H](CC(C)(C)C)NC(=O)[C@H](CC(=O)O)NC2=O (stereo partly drawn) [I-2586, Ac-PL3-Asp-Npg-B5-Asp-3COOHF-Gln-Ala-Phe-Leu-SPip2-2F3MeF-BztA-Ala-NH2] | 345 nM |
| CC(=O)N1CCC[C@]12CC=CCCCC1(CCCC=CCCCCOC(=O)N3CCC(C(=O)N[C@@H](Cc4ccccc4C(F)(F)F)C(=O)N[C@@H](Cc4csc5ccccc45)C(=O)N[C@@H](C)C(N)=O)(CC3)NC(=O)[C@H](CC(C)C)NC(=O)[C@H](Cc3ccccc3)NC(=O)[C@H](C)NC(=O)[C@H](CCC(N)=O)NC(=O)[C@H](Cc3cccc(C(=O)O)c3)NC(=O)[C@H](CC(=O)O)NC1=O)NC(=O)[C@H](CC(C)(C)C)NC(=O)[C@H](CC(=O)O)NC2=O (stereo partly drawn) [I-2587, Ac-PL3-Asp-Npg-B5-Asp-3COOHF-Gln-Ala-Phe-Leu-SPip3-2F3MeF-BztA-Ala-NH2] | 273 nM |
| CC(=O)N1CCC[C@]12CC=CCCCC1(CCCC=CCCCOC(=O)N3CCC(C(=O)N[C@@H](Cc4ccsc4)C(=O)N[C@@H](Cc4csc5ccccc45)C(=O)N[C@@H](CCC(N)=O)C(N)=O)(CC3)NC(=O)[C@H](CC(C)C)NC(=O)[C@H](Cc3ccccc3)NC(=O)[C@H](C)NC(=O)[C@H](C)NC(=O)[C@H](Cc3cccc(C(=O)O)c3)NC(=O)[C@H](CC(=O)O)NC1=O)NC(=O)[C@H](CC(C)(C)C)NC(=O)[C@H](CC(=O)O)NC2=O (stereo partly drawn) [I-2588, Ac-PL3-Asp-Npg-B5-Asp-3COOHF-Ala-Ala-Phe-Leu-SPip2-3Thi-BztA-Gln-NH2] | 26 nM |
| CC(=O)N1CCC[C@]12CC=CCCCC1(CCCC=CCCOC(=O)N3CCC(C(=O)N[C@@H](Cc4ccsc4)C(=O)N[C@@H](Cc4csc5ccccc45)C(=O)N[C@@H](C)C(N)=O)(CC3)NC(=O)[C@H](CC(C)C)NC(=O)[C@H](Cc3ccccc3)NC(=O)[C@H](C)NC(=O)[C@H](CCC(N)=O)NC(=O)[C@H](Cc3cccc(C(=O)O)c3)NC(=O)[C@H](CC(=O)O)NC1=O)NC(=O)[C@H](CC(C)(C)C)NC(=O)[C@H](CC(=O)O)NC2=O (stereo partly drawn) [I-2591, Ac-PL3-Asp-Npg-B5-Asp-3COOHF-Gln-Ala-Phe-Leu-SPip1-3Thi-BztA-Ala-NH2] | 602 nM |

Now from value to compound:

| IC50 | Structure (SMILES) |
| --- | --- |
| 1280 nM | CC(=O)N[C@]1(C)CCCCCCC2(CCCCCCCCOC(=O)N3CC[C@@](C(=O)N[C@@H](Cc4ccccc4C(F)(F)F)C(=O)N[C@@H](Cc4csc5ccccc45)C(=O)N[C@@H](CCC(N)=O)C(N)=O)(C3)NC(=O)[C@H](CC(C)C)NC(=O)[C@H](Cc3ccccc3)NC(=O)[C@H](C)NC(=O)[C@H](C)NC(=O)[C@H](Cc3cccc(C(=O)O)c3)NC(=O)[C@H](CC(=O)O)NC2=O)NC(=O)[C@H](CC(C)(C)C)NC(=O)[C@H](CC(=O)O)NC1=O (stereo partly drawn) [I-2570, Ac-R3-Asp-Npg-B5-Asp-3COOHF-Ala-Ala-Phe-Leu-PyrS2-2F3MeF-BztA-Gln-NH2] |
| 234 nM | CC(=O)N1CCC[C@H]1C(=O)N[C@]1(C)CCCCCCCCC2(CCCCCCCCOC(=O)N3CC[C@@](C(=O)N[C@@H](Cc4ccccc4C(F)(F)F)C(=O)N[C@@H](Cc4csc5ccccc45)C(=O)N[C@@H](CCC(N)=O)C(N)=O)(C3)NC(=O)[C@H](CC(C)C)NC(=O)[C@H](Cc3ccccc3)NC(=O)[C@H](C)NC(=O)[C@H](C)NC(=O)[C@H](Cc3cccc(C(=O)O)c3)NC(=O)[C@H](CC(=O)O)NC2=O)NC(=O)[C@H](CC(C)(C)C)NC(=O)[C@H](CC(=O)O)NC1=O (stereo partly drawn) [I-2573, Ac-Pro-R5-Asp-Npg-B5-Asp-3COOHF-Ala-Ala-Phe-Leu-PyrS2-2F3MeF-BztA-Gln-NH2] |
| 2960 nM | CC(=O)N[C@]1(C)CCCCCCCCC2(CCCCCCCCOC(=O)N3CC[C@@](C(=O)N[C@@H](Cc4ccccc4C(F)(F)F)C(=O)N[C@@H](Cc4csc5ccccc45)C(=O)N[C@@H](CCC(N)=O)C(N)=O)(C3)NC(=O)[C@H](CC(C)C)NC(=O)[C@H](Cc3ccccc3)NC(=O)[C@H](C)NC(=O)[C@H](C)NC(=O)[C@H](Cc3cccc(C(=O)O)c3)NC(=O)[C@H](CC(=O)O)NC2=O)NC(=O)[C@H](CC(C)(C)C)NC(=O)[C@H](CC(=O)O)NC(=O)[C@H](C)NC1=O (stereo partly drawn) [I-2574, Ac-R5-Ala-Asp-Npg-B5-Asp-3COOHF-Ala-Ala-Phe-Leu-PyrS2-2F3MeF-BztA-Gln-NH2] |
| 993 nM | CC(=O)N1CCC[C@]12CC=CCCCC1(CCCC=CCCOC(=O)N3CCC(C(=O)N[C@@H](Cc4ccccc4C(F)(F)F)C(=O)N[C@@H](Cc4csc5ccccc45)C(=O)N[C@@H](CCC(N)=O)C(N)=O)(CC3)NC(=O)[C@H](CC(C)C)NC(=O)[C@H](Cc3ccccc3)NC(=O)[C@H](C)NC(=O)[C@H](C)NC(=O)[C@H](Cc3cccc(C(=O)O)c3)NC(=O)[C@H](CC(=O)O)NC1=O)NC(=O)[C@H](CC(C)(C)C)NC(=O)[C@H](CC(=O)O)NC2=O (stereo partly drawn) [I-2580, Ac-PL3-Asp-Npg-B5-Asp-3COOHF-Ala-Ala-Phe-Leu-SPip1-2F3MeF-BztA-Gln-NH2] |
| 726 nM | CC(=O)N1CCC[C@]12CC1OC1CCCC1(CCCC=CCCCOC(=O)N3CC[C@@](C(=O)N[C@@H](Cc4ccccc4C(F)(F)F)C(=O)N[C@@H](Cc4csc5ccccc45)C(=O)N[C@@H](CCC(N)=O)C(N)=O)(C3)NC(=O)[C@H](CC(C)C)NC(=O)[C@H](Cc3ccccc3)NC(=O)[C@H](C)NC(=O)[C@H](C)NC(=O)[C@H](Cc3cccc(C(=O)O)c3)NC(=O)[C@H](CC(=O)O)NC1=O)NC(=O)[C@H](CC(C)(C)C)NC(=O)[C@H](CC(=O)O)NC2=O (stereo partly drawn) [I-2597, Ac-PL3-Asp-Npg-B5-Asp-3COOHF-Ala-Ala-Phe-Leu-PyrS2-2F3MeF-BztA-Gln-NH2] |
